The source of these data is patent US20160137639A1, “TRIAZOLE-ISOXAZOLE COMPOUND AND MEDICAL USE THEREOF” (JAPAN TOBACCO INC., priority 2012, published 2016).

Assay [1] deals with T1, human RORγ (Homo sapiens, UniProt P51449).
T1 construct: human, NM_005060.3 and from Ser253 to Lys518; expressed in transfected cells; host or cells: CHO cells (transient co-transfection with pG5-Luc reporter)
T1 sequence (P51449 253-518): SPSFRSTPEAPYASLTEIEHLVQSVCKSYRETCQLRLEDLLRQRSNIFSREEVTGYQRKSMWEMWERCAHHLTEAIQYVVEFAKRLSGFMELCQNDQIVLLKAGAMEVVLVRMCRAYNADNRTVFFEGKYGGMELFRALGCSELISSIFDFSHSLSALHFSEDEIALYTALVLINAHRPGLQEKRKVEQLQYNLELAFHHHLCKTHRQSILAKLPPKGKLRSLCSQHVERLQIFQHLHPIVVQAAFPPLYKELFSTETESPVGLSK
Briefly: Luciferase reporter gene assay of inhibitory effect against RORγ transcriptional activity (GAL4-hRORγ plasmid in CHO cells). Type of assay: cell-based. As to conditions: read-out: LUC EC50 hRORg.

Assay [2] concerns the target T2, mouse RORγ (Mus musculus, UniProt P51450).
T2 construct: mouse, NM_011281.2 and from Ile251 to Lys516; expressed in transfected cells; host or cells: CHO cells (transient co-transfection with pG5-Luc reporter)
T2 sequence (P51450 251-516): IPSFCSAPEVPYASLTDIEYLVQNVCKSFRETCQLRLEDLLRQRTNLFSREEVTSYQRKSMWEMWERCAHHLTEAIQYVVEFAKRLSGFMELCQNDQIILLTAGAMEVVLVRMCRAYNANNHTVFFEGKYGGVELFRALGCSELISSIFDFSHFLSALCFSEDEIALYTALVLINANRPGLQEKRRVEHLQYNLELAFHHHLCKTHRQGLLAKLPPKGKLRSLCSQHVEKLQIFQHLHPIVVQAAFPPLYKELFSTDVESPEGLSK
Briefly: Luciferase reporter gene assay of inhibitory effect against RORγ transcriptional activity (GAL4-mRORγ plasmid in CHO cells). Type of assay: cell-based. Particulars: read-out: LUC EC50 mRORg. The method in brief:
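Readout is intracellular luciferase after 2-day compound exposure (8 concentrations, 0.1% DMSO) in CHO cells expressing GAL4 fused to mouse RORγ LBD residues Ile251–Lys516 plus pG5-Luc reporter. EC50 fitted from %-of-control; points showing resazurin-detected cytotoxicity dropped.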
Background: Reporter assays use an easily measured gene product as a stand-in for the process of interest.

As to `Cc1ccc(NC(=O)CCc2noc([C@H]3C[C@@H](CC(C)(C)C)C3)c2C2CC2)c(Cl)c1` [Example F-719], the EC50 in assay [1] and in assay [2] was less than 3 µM throughout.

For `CC(C)(C)C[C@H]1C[C@@H](c2onc(CCC(=O)Nc3ccc(Cl)cc3Cl)c2C2CC2)C1` [Example F-720], the EC50 in assay [1] and in assay [2] was less than 3 µM each time.

With `Cc1ccc(NC(=O)CCc2noc([C@H]3C[C@@H](CC(C)(C)C)C3)c2C2CC2)c(C)c1` [Example F-721], the EC50 in assay [1] and in assay [2] was less than 3 µM throughout.

`CC(C)(C)C[C@H]1C[C@@H](c2onc([C@@H](CCC(=O)O)CC(=O)NS(=O)(=O)C3CC3)c2C2CC2)C1` [Example F-722]: the EC50 in assay [1] and in assay [2] was more than 3 µM in each case.

In the case of `CC(C)(C)C[C@H]1C[C@@H](c2onc([C@@H](CCC(=O)O)CC(=O)NS(=O)(=O)c3ccccc3)c2C2CC2)C1` [Example F-723], the concentration for a half-maximal effect (EC50) in assay [1] and in assay [2] was more than 3 µM in each case.

For the compound `COCC(C)(C)C[C@H]1C[C@@H](c2onc([C@@H](CCC(=O)O)CC(=O)Nc3ccc(CO)cc3Cl)c2C2CC2)C1` [Example F-724], the EC50 in assay [1] and in assay [2] was less than 3 µM each time.

Take `COCC(C)(C)C[C@H]1C[C@@H](c2onc([C@@H](CCC(=O)O)CC(=O)Nc3ccc(C)cc3Cl)c2C2CC2)C1` [Example F-725]: the EC50 in assay [1] and in assay [2] was less than 3 µM throughout.

For `CC(C)(CO)C[C@H]1C[C@@H](c2onc([C@@H](CCC(=O)O)CC(=O)Nc3ccc(CO)cc3Cl)c2C2CC2)C1` [Example F-726], the EC50 in assay [1] and in assay [2] was more than 3 µM throughout.

In the case of `Cc1ccc(NC(=O)C[C@H](CCC(=O)O)c2noc([C@H]3C[C@@H](CC(C)(C)C(=O)O)C3)c2C2CC2)c(Cl)c1` [Example F-727], the concentration for a half-maximal effect (EC50) in assay [1] and in assay [2] was more than 3 µM each time.

In the case of `CNC(=O)C(C)(C)C[C@H]1C[C@@H](c2onc([C@@H](CCC(=O)O)CC(=O)Nc3ccc(C)cc3Cl)c2C2CC2)C1` [Example F-728], the EC50 in assay [1] and in assay [2] was less than 3 µM throughout.

With `Cc1ccc(NC(=O)CCc2noc(CCCC(C)(C)C)c2C2CC2)c(Cl)c1` [Example F-729], the EC50 in assay [1] and in assay [2] was less than 3 µM each time.

In the case of `CC(=O)c1ccc(NC(=O)C[C@H](CCC(=O)O)c2noc([C@H]3C[C@@H](CC(C)(C)CO)C3)c2C2CC2)c(Cl)c1` [Example F-731], the EC50 in assay [1] and in assay [2] was more than 3 µM each time.

For the compound `Cc1ccc(NC(=O)CCc2cc([C@H]3C[C@@H](CC(C)(C)C)C3)on2)c(Cl)c1` [Example F-733], the EC50 in assay [1] and in assay [2] was less than 3 µM each time.

Turning to `Cc1ccc(NC(=O)CCc2noc(C34CC5CC(CC(C5)C3)C4)c2C2CC2)c(Cl)c1` [Example F-734], the concentration giving a half-maximal response (EC50) in assay [1] and in assay [2] was less than 3 µM in each case.

In the case of `COc1cc(C)ccc1CNC(=O)CCc1noc(C23CC4CC(CC(C4)C2)C3)c1C1CC1` [Example F-735], the EC50 in assay [1] and in assay [2] was less than 3 µM each time.

`CC(C)(C)C[C@H]1C[C@@H](c2onc([C@@H](CCC(=O)O)CC(=O)NCC3CCOCC3)c2C2CC2)C1` [Example F-736]: the EC50 in assay [1] and in assay [2] was more than 3 µM throughout.

With `C=CCCCCc1onc(CCC(=O)Nc2cccc(C=C)c2)c1C1CC1` [Example F-738], the EC50 in assay [1] and in assay [2] was more than 3 µM each time.

Take `CC(C)(C[C@H]1C[C@@H](c2onc([C@@H](CCC(=O)O)CC(=O)Nc3ccc(CO)cc3Cl)c2C2CC2)C1)C(=O)O` [Example F-739]: the EC50 in assay [1] and in assay [2] was more than 3 µM each time.

Regarding `Cc1ccc(NC(=O)CCc2noc(C(F)(F)c3cc(C(C)(C)C)no3)c2C2CC2)c(Cl)c1` [Example F-740], the EC50 in assay [1] and in assay [2] was less than 3 µM in each case.

For `COc1cc(C)ccc1CNC(=O)CCc1noc(C(F)(F)c2cc(C(C)(C)C)no2)c1C1CC1` [Example F-741], the EC50 in assay [1] and in assay [2] was less than 3 µM throughout.

For the compound `Cc1ccc(NC(=O)CCc2noc(C(F)(F)c3cc(C(C)(C)C)on3)c2C2CC2)c(Cl)c1` [Example F-745], the EC50 in assay [1] and in assay [2] was less than 3 µM each time.

As to `CC(C)(C[C@H]1C[C@@H](c2onc(C(CCC(=O)O)CC(=O)Nc3ccc(C(=O)O)cc3Cl)c2C2CC2)C1)C(=O)O` (some centres unmarked) [Example F-746], the concentration giving a half-maximal response (EC50) in assay [1] and in assay [2] was more than 3 µM each time.
